Laboratory results published in patent publication US11612572B2, “Treatment of schizophrenia using beta-caryophyllene and CB2 receptor agonists” (priority 2012, dated 2023).
“Also recorded” adds a separate entry of the source.

Legend:
[1] = target: cannabinoid receptor CB2 (Homo sapiens, UniProt P34972); conditions: cited from earlier work
[2] = test system: mouse model of schizophrenia; assay: Prepulse inhibition (PPI) of the startle reflex; conditions: for % inhibition (ability to adjust to sound stimulus, PPI): Study I, age 8 weeks
[3] = test system: mouse model of schizophrenia; assay: Elevated Plus Maze test; conditions: for time spent in the distal end of the opened arm (anxiety): Study I, age 13 weeks
[4] = Body weight of mice in the neonatal PCP model
[5] = in vivo; cited from earlier work
[6] = test system: mouse model of schizophrenia; assay: Behavior in the Phenotyper cage; format: in vivo, mice; conditions: Study II
[7] = test system: mouse model of schizophrenia; assay: Open-field test (ambulation/crossing, rearing, grooming)
[8] = orally-administered; cited from earlier work
[9] = Study II, PND 68, saline-treated mice
[10] = Study III: male mice, PND 17, PCP 5 mg/kg, 1 h later BCP 10 mg/kg or BCP+AM630 10 mg/kg each, DMSO-based vehicle

Chain of cannabinoid receptor CB2 (P34972 whole entry): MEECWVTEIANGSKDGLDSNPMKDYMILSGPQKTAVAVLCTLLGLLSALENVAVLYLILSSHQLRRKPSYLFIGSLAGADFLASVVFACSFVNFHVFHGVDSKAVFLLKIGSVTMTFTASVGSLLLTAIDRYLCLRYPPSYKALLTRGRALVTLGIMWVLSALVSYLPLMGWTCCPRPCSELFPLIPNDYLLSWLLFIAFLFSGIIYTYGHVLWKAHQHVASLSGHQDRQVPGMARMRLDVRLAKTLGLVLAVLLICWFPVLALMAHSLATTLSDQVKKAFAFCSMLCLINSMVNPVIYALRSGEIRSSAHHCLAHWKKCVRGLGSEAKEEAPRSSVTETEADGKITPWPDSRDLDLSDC

Question: Which results are given for beta-caryophyllene [BCP]?
Answer: activity at CB2 receptor [1]: CB2-receptor agonist; % inhibition (ability to adjust to sound stimulus, PPI) ([2]; females (FIG. 5D)): No significant difference; % inhibition (ability to adjust to sound stimulus, PPI) ([2]; males (FIG. 5B)): reversed this effect; also recorded: significantly reversed the effect of PCP on the sensorimotor-gate in males; response to startle at the end of the PPI test ([2]; Study II, PND 68 (FIGS. 18A-18C)): did not affect the response to startle at the end of the PPI test; pre-pulse inhibition (% PPI) ([2]; Study II, PND 68, PCP-treated mice (FIG. 16A)): significantly reversed the effect of PCP on pre-pulse inhibition; also recorded: reversed the effect of PCP on PPI; response to pre-pulse tones ([2]; Study II, PND 68, PCP-treated mice (FIGS. 17A-17C)): significantly reversed the effect of PCP on response to pre-pulse tones; also recorded: reversed the effect of PCP on the response to tone; startle response ([2]; Study II, PND 68, females (FIG. 16B)): significantly reversed the effect of PCP on startle response in females; response to the startle stimuli ([2]; Study II, PND 68, males (FIG. 16C)): no difference in the response to the startle stimuli between groups; pre-pulse inhibition (% PPI) [2, 9]: no substantial effect on saline-treated mice; response to pre-pulse tones [2, 9]: no effect on saline-treated mice; response to the startle stimuli (120 dB) ([2]; Study II, PND 106 (FIGS. 25A-25C)): no difference in the response to the startle stimuli (120 dB) between groups; response to tones ([2]; Study II, PND 106 (FIGS. 25D-25F)): reversed the effect of PCP on the response to tones; % pre-pulse inhibition (PPI) ([2]; Study II, PND 106 (FIGS. 25G-25I)): reversed the effect of PCP on the % pre-pulse inhibition; also recorded: reversed the effect of PCP on attention at PND106; time spent in the distal end of the opened arm (anxiety) ([3]; females (FIGS. 6E, 6G)): reversed this effect; also recorded: reversed both effects; time spent in the distal end of the opened arm (anxiety) ([3]; males (FIGS. 6F, 6H)): reversed this effect; also recorded: reversed both effects; behavior in the Plus Maze test ([3]; Study II, PND 64 (FIGS. 19A-19F)): did not reverse the effects of PCP on behavior in the Plus Maze test; body weight ([4]; Study I, BCP 10 mg/kg in DMSO-based vehicle (FIG. 12C)): completely reversed the effect of PCP on body weight; body weight ([4]; Study I, ethanol-based vehicle, PND 7 / first week of life (FIG. 1B)): reversed the reduction in body weight during the first week of life; body weight ([4]; Study I: PCP 5 mg/kg PND 3-16, BCP 10 mg/kg 1 h after PCP, ethanol-based vehicle, each day of injection PND 3-17 (FIG. 1A)): did not restore the weight completely; body weight ([4]; Study I, PND 17 (FIG. 2C)): no significant difference between groups treated with PCP with or without BCP; body weight ([4]; Study I, PND 17, males (FIG. 3A)): appeared to be more prominent; body weight ([4]; Study I, PND 35-37, females (FIG. 4D)): significantly reversed the effect of PCP on female body weight; body weight ([4]; Study I, PND 35-37, males (FIG. 4A)): no significant difference in male body weight between the groups; body weight ([4]; Study II: BCP 5 mg/kg twice a week on PND 43-61 (FIG. 14A)): did not affect body weight; body weight ([4]; Study II, PND 104): did not increase body weight in females and males, rather reduced body weight of PCP+BCP treated group; toxicity [5]: apparent substantial non-toxicity; time spent in the food zone ([6]; PND 91): did not affect the time spend in the food zone; time spent at the drinking zone ([6]; PND 91, compared with PCP-treated group): appeared to reduce the time spend at the drinking zone; frequency of entries to the wheel ([6]; PND 91, females and males): reversed the effects of PCP on the frequency of entries to the wheel; also recorded: reversed the effects of PCP on frequency of entries to the wheel; time spent in the Hidden Zone ([6]; PND 91, females and males): reversed the effects of PCP on the time spend in the Hidden Zone; also recorded: reversed the effects of PCP on the time spent in the hidden zone; frequency of entries to the hidden zone ([6]; PND 91, males (FIG. 20D)): reversed the effect of PCP in males; frequency of entries to the Wheel Zone ([6]; PND 105): appeared to reduce the effect of PCP on the frequency of entries to the Wheel Zone; frequency of entries to the hidden zone ([6]; PND 105): reversed the effects of PCP on the frequency of entries to the hidden zone; also recorded: reversed the effect of PCP on frequency of entries to hidden zone; time spent at the hidden zone ([6]; PND 105): reversed the effects of PCP on the time spend at the hidden zone; also recorded: reversed the effect of PCP on time spent at the hidden zone; time spent in the wheel ([6]; PND 105): showed a trend to reverse the effect of PCP on the time spend in the wheel; ambulation ([7]; Study I, DMSO-based carrier, PND 17, males (FIG. 12A)): completely reversed the effects of PCP; rearing behavior ([7]; Study I, DMSO-based carrier, PND 17, males (FIG. 12B)): completely reversed the effects of PCP; rearing ([7]; Study I, ethanol-based vehicle, PND 17 (FIG. 2B)): reversed the effects of PCP on rearing and exploration; ambulation (exploration) ([7]; Study I: PCP 5 mg/kg, BCP 10 mg/kg, ethanol-based vehicle, PND 17 (FIG. 2A)): reversed the effects of PCP on rearing and exploration; ambulation ([7]; Study I, PND 17, females): reversed a proportion of the effects of PCP on ambulation and rearing behavior of female mice; rearing behavior ([7]; Study I, PND 17, females): reversed a proportion of the effects of PCP on ambulation and rearing behavior of female mice; locomotor activity ([7]; Study I, PND 17, males): appeared to be less sensitive to the treatment of PCP or PCP+BCP; rearing and exploration behaviors ([7]; Study I, PND 35-37, females (FIGS. 4E, 4F)): no differences in rearing and exploration behaviors were seen between the different groups; rearing behavior ([7]; Study I, PND 35-37, males (FIG. 4B)): significantly reduced rearing behavior as compared to vehicle and PCP-treated groups; locomotor activity ([7]; Study I, PND 35-37, males (FIG. 4C)): reduced locomotor activity; also recorded: significantly reversed the effect of PCP in males; exploration ([7]; Study II: BCP in adolescence compared with saline-treated mice, PND 63): significantly inhibited the exploration of mice compared with saline-treated mice; ambulation ([7]; Study II: neonatal PCP, BCP 5 mg/kg PND 43-61, PND 63, male and female): significantly reversed the effect of PCP on ambulation in male and female mice; rearing ([7]; Study II, PND 63, females and males (FIGS. 15A-15C)): reversed the effect of PCP on rearing in both females and males; exploratory behavior ([7]; Study II, PND 104, females (last BCP treatment PND 61)): a relapse in exploratory behavior was evident; self-grooming (total, without stimuli) ([7]; Study II, PND 104, females or males): did not reverse the effect of PCP on self-grooming; also recorded: did not reverse the effect of PCT on grooming; exploration ([7]; Study II, PND 104, males): improved exploration and rearing behaviors of male PCP treated mice; rearing behavior ([7]; Study II, PND 104, males): still significantly higher than that of PCP-treated mice with no BCP treatment; also recorded: improved exploration and rearing behaviors of male PCP treated mice; ambulation [7, 10]: reversed the effects of PCP on rearing and exploration; rearing [7, 10]: reversed the effects of PCP on rearing and exploration; oral absorption / systemic availability [8]: absorbed by the digestive tract and becomes systemically available
